# From paper PMC12657321, “Pre-clinical evaluation of a potent and effective Pin1-degrading agent in pancreatic cancer” (Molecular Therapy Oncology, 2025)
# Non-standard residues stand in square brackets, D forms with d. Residues, ends and D or L forms follow the SMILES beside them. *: point of attachment. Trp(6-Cl) = N[C@@H](Cc1c[nH]c2cc(Cl)ccc12)C(=O)O; Pip = O=C(O)[C@@H]1CCCCN1; ClAc = O=C(CCl)*
# Assays:
# [1] = Stability in aqueous buffer (1x PBS); type: physicochemical; settings: 1x phosphate buffered saline, 1 μg/mL, 37°C, up to 6 h, acetonitrile quench, LC-MS/MS
# Protocol: A solution of a Pin1 inhibitor was spiked into blank plasma at 1 μg/mL in various solutions, including an aqueous buffer (1× phosphate-buffered saline; Fisher Scientific, Fair Lawn, NJ), human plasma (Innovative Research Inc., Novi, MI), wild-type mouse plasma (Innovative Research Inc., Novi, MI), plasma form esterase-deficient mice (City of Hope, Duarte, CA), and plasma from Black 6-Cg mice (City of Hope, Duarte, CA).
# The spiked plasma samples were incubated at 37°C for up to 6 h. At each designated time point, a 20 μL aliquot of the incubation sample was removed and quenched in 100 μL of acetonitrile. At the end of the incubation, the quenched samples were vortexed and centrifuged for 10 min at 4°C and 20,000 × g. The resulting supernatant was reconstituted and analyzed by LC-MS/MS.
# Table S2. Stability half-life of agents reported in Table 1 after incubation at 37 °C in various media. Acq represents aqueous buffer composed of 1x phosphate buffered saline (Fisher Scientific, Fair Lawn, NJ); human represents human plasma (Innovative Research Inc., Novi, MI); mouse wt represents wild type mouse plasma (Innovative Research Inc., Novi, MI); mouse ES1e represents plasma form esterase deficient mice (City of Hope, Duarte, CA); mouse B6-Cg represents plasma from black 6-Cg mice (City of Hope, Duarte, CA). See Figure 1 for the chemical structures of these compounds.
# Compound Acq Human Mouse Mouse ES1e Mouse
# [2] = 164B8 concentration in tissues of treated mice by LC-MS; type: in vivo, mouse; settings: for 164B8 conc. (ng/mg) Predicted means (LS means) Adjacent Peritoneum / 164B8 conc. (ng/mg) Predicted means (LS means) Liver / 164B8 conc. (ng/mg) Predicted means (LS means) Tumor: 6 h after last dose, LC-MS, two-way ANOVA LS mean (Figure 7B)
# Protocol: To further verify that the observed activity was due to direct inhibition of Pin1 in vivo, we analyzed tumor tissues to measure 164B8 levels and Pin1 degradation in both tumor and normal tissues. At day 14, 6 h after the final intraperitoneal dose, 164B8 was detected and quantified in tumor tissue via liquid chromatography-mass spectrometry (LC-MS). Significant levels of 164B8 were detected in the liver, tumor-adjacent peritoneum, and tumor tissues collected from mice treated with either 30 mg/kg or 60 mg/kg (Figure 7A). The average tumor values were 0.62 ng/mg for mice treated with 30 mg/kg 164B8 and approximately 8 ng/mg for those treated with 60 mg/kg 164B8, compared with the vehicle control (0.03 ng/mg). In mice treated with 164B8 at 60 mg/kg, we observed enrichment of 164B8 in tumor tissues compared with adjacent normal tissues (mean: 3.65 vs. 8 ng/mg, p = 0.035) and normal liver tissues (mean: 0.75 vs. 8 ng/mg, p = 0.0003). For the 30 mg/kg dose, drug levels were numerically higher in tumor tissue (0.62 ng/mg) compared with adjacent normal peritoneum (0.11 ng/mg) and liver (0.10 ng/mg), although these differences were not statistically significant after adjustment for multiple comparisons (Figures 7A and 7B). Likewise, Pin1 levels in tumor tissues were detected via western blotting (Figure 7C).
# Figure 7 Determination of Pin1 levels and 164B8 concentration in treated mice Pin1 drug concentration and Pin1 levels in tumors were measured 6 h after the last dose of 164B8 treatment by LC-MS (A and B) and western blot (C), respectively. Drug concentrations among the three groups were compared using two-way ANOVA in Prism, accounting for interactions (D). Tukey’s multiple comparison test was used to compare multiple groups (∗∗∗p = 0.0003, ∗p = 0.035). Pin1 levels were compared among the three groups after normalizing to β-actin (loading control) using one-way ANOVA and adjusting for multiple comparisons (∗∗∗p < 0.001). TEXT PRINTED IN THE PICTURE: (B) 164B8: 164B8 conc. (ng/mg) Predicted means (LS means) Liver: 0.1017 (30mg/kg); 164B8 conc. (ng/mg) Predicted means (LS means) Adjacent Peritoneum: 0.1133 (30mg/kg); 164B8 conc. (ng/mg) Predicted means (LS means) Tumor: 0.6183 (30mg/kg); 164B8 conc. (ng/mg) Predicted means (LS means) Column means: 0.2778 (30mg/kg); 164B8 conc. (ng/mg) Predicted means (LS means) Liver: 0.7550 (60mg/kg); 164B8 conc. (ng/mg) Predicted means (LS means) Adjacent Peritoneum: 3.648 (60mg/kg); 164B8 conc. (ng/mg) Predicted means (LS means) Tumor: 8.005 (60mg/kg); 164B8 conc. (ng/mg) Predicted means (LS means) Column means: 4.136 (60mg/kg)
# Bioluminescent imaging (BLI) was performed one week post-inoculation. Based on imaging intensity, mice were re-grouped to ensure six animals per group. The PIN1 inhibitor was administered via intraperitoneal injection at doses of 30 mg/kg or 60 mg/kg, once daily, 5 days per week for 2 weeks. Tumor engraftment and growth were monitored by in vivo BLI. D-luciferin potassium salt was dissolved in sterile PBS to a final concentration of 16.6 mg/mL and mice were injected intraperitoneally with D-luciferin solution (0.139 g luciferin/kg body weight), then imaged 10–15 min after luciferin injection using an IVIS Spectrum Imaging System (Lago X) with identical exposure times and binning settings for all mice. Bioluminescence signal intensity was quantified as total flux (photons/s) within a region of interest (ROI) using Aura image software. BLI was performed once every week during the treatment. After 2 weeks of treatment, mice were euthanized 6 h after the final dose. Blood samples were collected via cardiac puncture, and normal peritoneum, intestine, and liver tissues were harvested and snap-frozen on dry ice.
smiles,measurement,setting,value
CNC(=O)[C@H](Cc1c[nH]c2ccccc12)NC(=O)[C@@H]1CCCCN1C(=O)[C@H](Cc1c[nH]c2cc(Cl)ccc12)NC(=O)CCl [164B8] (ClAc-[Trp(6-Cl)]-[Pip]-Trp-NHMe),"Stability half-life, Acq (aqueous buffer)",[1],> 5 h
same,164B8 conc. (ng/mg) Predicted means (LS means) Adjacent Peritoneum,[2]; 30mg/kg,0.1133 ng/mg
same,164B8 conc. (ng/mg) Predicted means (LS means) Liver,[2]; 30mg/kg,0.1017 ng/mg
same,164B8 conc. (ng/mg) Predicted means (LS means) Tumor,[2]; 30mg/kg,0.6183 ng/mg
same,164B8 conc. (ng/mg) Predicted means (LS means) Adjacent Peritoneum,[2]; 60mg/kg,3.648 ng/mg
same,164B8 conc. (ng/mg) Predicted means (LS means) Liver,[2]; 60mg/kg,0.7550 ng/mg
same,164B8 conc. (ng/mg) Predicted means (LS means) Tumor,[2]; 60mg/kg,8.005 ng/mg
same,164B8 conc. (ng/mg) Predicted means (LS means) Column means,"[2]; 60mg/kg, mean over liver, adjacent peritoneum and tumor (Figure 7B)",4.136 ng/mg
